Literature values, collected in patent publication US20060194234A1, “Methods for identifying small molecules that bind specific RNA structural motifs” (PTC Therapeutics, Inc., priority 2001, published 2006).

What was measured:
[1] = tested on: IIB (or RRE) region of HIV RNA; conditions: appears to result from competitive binding directly to the RRE RNA structural motif
[2] = tested on: 60-mer from ribosomal RNA; conditions: literature statement in background

Compound | block of the binding of Rev to its viral recognition element in the IIB (or RRE) region of HIV RNA [1] | binding to a 60-mer from ribosomal RNA [2]
NC[C@@H]1O[C@H](O[C@H]2[C@@H](O)[C@H](O[C@@H]3[C@@H](O)[C@H](N)C[C@H](N)[C@H]3O[C@H]3O[C@H](CO)[C@@H](O)C[C@H]3N)O[C@@H]2CO)[C@H](N)[C@@H](O)[C@@H]1O[C@H]1O[C@H](CO)[C@@H](O)[C@H](O)[C@@H]1O [lividomycin A] | can block the binding | –
NC[C@@H]1O[C@H](O[C@H]2[C@@H](O)[C@H](O[C@@H]3[C@@H](O)[C@H](N)C[C@H](N)[C@H]3O[C@H]3O[C@H](CN)[C@@H](O)[C@H](O)[C@H]3N)O[C@@H]2CO)[C@H](N)[C@@H](O)[C@@H]1O [neomycin B] | can block the binding | –
NC[C@H]1O[C@H](O[C@H]2[C@H](O)[C@@H](O[C@H]3O[C@H](CO)[C@@H](O)[C@H](N)[C@H]3O)[C@H](N)C[C@@H]2N)[C@H](N)C[C@@H]1O [tobramycin] | can block the binding | –
thiostreptone | – | binds tightly
